How the values were obtained:
[1] = test system: CDK9 binding to HIV 5′-LTR in J-Lat cells (10.6); assay: ChIP-qPCR of CDK9 binding to HIV 5'-LTR; type: cell-based, human; conditions: PMA (50ng/ml) + compound 5 μM, 24 hours
Method: Twenty-four hours later, cells were subjected to ChIP-qPCR using an anti-CDK9 antibody, with isotype IgG as the ChIP control.
24 hours after treatments, ChIP-qPCR was performed using a CDK9-specific antibody to examine the recruitment of CDK9 to HIV 5’-LTR in J-Lat cells. ChIP using an isotype IgG was included for normalization. Data were shown as fold change in the precipitated HIV 5′ LTR by the CDK9 antibody relative to the control isotype IgG for each treatment condition.
ChIP was performed using a method reported previously [41]. About 15 × 10⁶ J-Lat cells were treated according to the conditions described in the Main Text. After treatment, cells were collected, washed once with PBS, and resuspended in 10 mL PBS. To cross-link protein–DNA complexes, cells were fixed with 37% formaldehyde, and the reaction was quenched by adding 10Xglycine and incubating for 5 min at room temperature. The cells were then pelleted by centrifugation, and the pellets were incubated in ice-cold lysis buffer for 30 min. […] After extensive washing with the appropriate ChIP buffers, immune complexes were eluted, reverse cross-linked, and treated with proteinase K. DNA was purified using phenol–chloroform extraction and subsequently analyzed by qPCR. […] ChIP-qPCR results were quantified using the fold-enrichment method as previously reported [41].

[2] = test system: HIV-1 JR-CSF; assay: HIV suppression in HIV-infected humanized mice (plasma viral load); type: in vivo, CD34+ Hu-NSG mice (Hu-mice)
Method: Next, at week 0, all12 Hu-mice were intravenously inoculated with a single dose of HIV-1 JR-CSF (equivalent to 10 ng HIV p24 antigen per animal) (Fig 6A). Systemic HIV infection was confirmed in 11 out of the 12 mice at weeks 2 and 3 after HIV inoculation, based on the detection of plasma viral RNAs by a single-step RT-qPCR (Fig 6B-6C). Systemic HIV infection in the Hu-mice was also confirmed by ELISA quantification of plasma HIV p24 antigens at weeks 2 and 3 after HIV inoculation (Fig F in S1 Text). The 11 Hu-mice with successful HIV infection were then randomized into four treatment groups at week 3: empty vehicle control (EV) (n = 2), ART (n = 3), ZL0580 (n = 3), and ART + ZL0580 (n = 3). Drug formulations included: ART (Raltegravir 1.2 mg/mouse, Emtricitabine 3.2 mg/mouse, Tenofovir 3.2 mg/mouse), ZL0580 (3.8 mg/mouse), and a combination of both ART + ZL0580 (same concentration of individual compounds). All drugs were formulated in the buffer consisting of 10% DMSO, 10% Solutol HS 15, and 80% HP-β-CD (20%, w/v). The empty vehicle (EV) group received only the formulation buffer. Treatment regimens were initiated at week 3 and administered daily by intraperitoneal injection (Fig 6A). Plasma viral loads were closely monitored during the treatments.
All humanized mice used in this study weighed approximately 20 grams, and drug dosages were calculated accordingly. The following compounds were administered to mice daily: Raltegravir (Ral) at 60mg/kg (1.2 mg/mouse), Emtricitabine (Emt) at 160mg/kg (3.2 mg/mouse), Tenofovir (Ten) at 160mg/kg (3.2 mg/mouse), and ZL0580 at […] (3.8 mg/mouse). ART drugs were purchased from MedChemExpress. ZL0580 was synthesized in-house as previously reported. All compounds were dissolved in a formulation vehicle composed of 10% DMSO, 10% Solutol HS 15, and 80% hydroxypropyl-β-cyclodextrin (HP-β-CD, 20% w/v). Compounds were administered via intraperitoneal injection daily.
(§1) Mice were 16-week-old at the initiation of the experiments. All mice received human CD34 + stem cells of a single donor and human immune cell reconstitution was confirmed for all mice. A total of 12 Hu-mice were initially included in the study with each tagged and assigned with a unique ID. At week 0, all Hu-mice were intravenously (IV) infected with HIV-1 JR-CSF at a single dose of 10ng HIV p24 equivalent virus per animal. Blood/plasma viral loads were monitored and quantified weekly by a single-step RT-qPCR until systemic HIV infection was established. […] At week 3, the remaining 11 Hu-mice were randomized into four groups for subsequent treatments: Empty Vehicle (EV) (n = 2), ART (n = 3), ZL0580 (n = 3), and ART + ZL0580 (n = 3). The control mice received a mixture of DMSO, Solutol HS 15, and hydroxypropyl-β-cyclodextrin (HP-β-CD, 20% w/v), which was considered the empty vehicle control (EV). ART and ZL0580 compounds were administered to mice via intraperitoneal injection daily for four weeks (from week 3 to week 7). […] Plasma samples were collected from mice either weekly or biweekly for quantification of viral loads (RNA copies). Blood cells were also collected at weeks 7 and 13 for quantification of cell-associated HIV DNA in blood. Mouse weights were monitored after treatment.
Viral RNA was isolated from plasma samples using the QIAamp Viral RNA Mini Kit (Qiagen) according to the manufacturer’s instructions. Quantification of viral RNA was performed using the PrimeTime One-Step RT-qPCR Master Mix (IDT) on a CFX Connect Real-Time PCR System (Bio-Rad). […]

[3] = test system: Tat recruitment to the HIV promoter in J-Lat cells (clone 10.6); design: method as in PMID 31329163; conditions: cited from earlier work
[4] = test system: J-Lat cells (clone 10.6); assay: RNA-Seq differential gene expression; type: cell-based, human; conditions: 5 μM, 24 hours, vs. NC; p < 0.001 and log2 fold change > 1
Method: 24 hours after treatment, RNA was extracted from cells for sequencing analysis. RNA-Seq was conducted on duplicate samples for each condition.
Following the treatment, total RNA was extracted from the cells using the RNeasy Mini Kit (Qiagen) in accordance with the manufacturer’s instructions. To ensure the integrity and quality of the isolated RNA, samples were first quantified and then analyzed by agarose gel electrophoresis. Clear and intact ribosomal RNA bands confirmed that the RNA was of high quality and suitable for downstream applications. The verified RNA samples were subsequently submitted for high-throughput RNA sequencing (RNA-seq) to evaluate transcriptomic changes induced by the respective treatments. RNA sample quality was assessed using Agilent Bioanalyzer and samples with a RIN value larger than 7.0 were used for library preparation. RNA-Seq libraries were prepared using NEBNext Poly(A) mRNA Magnetic Isolation module (E7490) and NEBNext Ultra II Directional RNA Library Prep kit for illumina (E7760) following manufacturer’s recommended procedure. The library quality was assessed using Agilent Bioanalyzer High Sensitivity DNA chip and real-time PCR and pooled together for sequencing. The pooled library was sequenced on Illumina NextSeq 550 Mid Output 150 cycle kit for Paired End 75 bp reads targeting ~20 million paired reads per sample. The sequencing reads were mapped to human reference genome hg38 using STAR v2.7.5c [59] using recommended ENCODE parameters. Differential gene expression analysis was performed using Bioconductor DESeq 2 package [60].

[5] = Body weight / tolerability in HIV-infected Hu-mice; type: in vivo, CD34+ Hu-NSG mice (Hu-mice)
From the text: To assess general health of the mice and potential protective effects of the treatments, body weights of Hu-mice were closely monitored. […] There was a slight reduction in body weights of Hu-mice in the EV group following HIV infection. However, no statistically significant difference was detected as compared to the three treatment groups (Fig 6E).
as §1, with “3).” for “3). The control mice received a mixture of DMSO, Solutol HS 15, and hydroxypropyl-β-cyclodextrin (HP-β-CD, 20% w/v), which was considered the empty vehicle control (EV). ART and ZL0580 compounds were administered to mice via intraperitoneal injection daily for four weeks (from week 3 to week 7).”

[6] = test system: HIV-1 JR-CSF; assay: Cell-associated HIV DNA in blood cells of Hu-mice; type: in vivo, CD34+ Hu-NSG mice (Hu-mice); conditions: qPCR, per 10^7 PB cells
From the text: To assess whether ZL0580 or ART affects HIV DNA levels, we quantified cell-associated HIV DNA in the peripheral blood of Hu-mice after treatments. Blood cells collected at weeks 7, 11 and 13 were subjected to DNA extraction and quantification of HIV DNA by qPCR. […] By week 13, HIV DNA levels also remained similar across all groups (Fig 7C).
Mice were 16-week-old at the initiation of the experiments. All mice received human CD34 + stem cells of a single donor and human immune cell reconstitution was confirmed for all mice. A total of 12 Hu-mice were initially included in the study with each tagged and assigned with a unique ID. […] Blood/plasma viral loads were monitored and quantified weekly by a single-step RT-qPCR until systemic HIV infection was established. […] Plasma samples were collected from mice either weekly or biweekly for quantification of viral loads (RNA copies). Blood cells were also collected at weeks 7 and 13 for quantification of cell-associated HIV DNA in blood. Mouse weights were monitored after treatment.
Quantification of cell-associated HIV DNA in blood cells was performed by qPCR as previously described with modifications. Blood cells were counted and subjected to DNA extraction using the Qiagen QIAamp DNA Blood Mini Kit (QIAGEN). qPCR primers and probe: Forward: 5′-[…]-3′, Reverse: 5′-[…]-3′, Probe: 5’-/5HEX/[…]/ZEN/GCC […]/3IABkFQ. […]

Structure (SMILES): O=C(Nc1ccc(C(F)(F)F)cc1)Nc1ccc(S(=O)(=O)N2CCC[C@H]2C(=O)Nc2ccccc2)cc1 [ZL0580]
- Reduction of CDK9 binding relative to PMA alone [1]: ~ 3.8 fold
- Delay of viral rebound following TI compared to ART alone ([2]; ZL0580 monotherapy): ~ 2 weeks
- Plasma viral loads at week 5 ([2]; after two weeks of daily i.p. treatment, ZL0580 3.8 mg/mouse, ART Raltegravir 1.2, Emtricitabine 3.2, Tenofovir 3.2 mg/mouse): nearly undetectable levels
- Plasma viral copies at week 7 (mean ± SEM) ([2]; end of 4 weeks daily i.p. treatment, n = 3 per group): 105 ± 28 HIV RNA copies/ml
- Area under the curve (AUC) of viral loads after TI, weeks 7 to 15, compared to EV control ([2]; one-way ANOVA): significantly suppressed viral rebounds
- Plasma mean viral copies at week 9 ([2]; two weeks post treatment interruption (TI)): undetectable
- Tat binding to the HIV promoter [3]: decreased
- Downregulated genes [4]: 104 genes
- Significantly regulated genes (total) [4]: 166 genes
- Upregulated genes [4]: 62 genes
- Tolerability in Hu-mice ([5]; daily intraperitoneal administration over the course of treatment): well tolerated
- Body weights of Hu-mice ([5]; daily intraperitoneal administration, throughout the study): maintained stable body weights
- HIV DNA copies in peripheral blood cells at week 7, among groups incl. EV control [6]: no significant differences

— PMC12880750, “Mechanistic insights and in vivo HIV suppression by the BRD4-targeting small molecule ZL0580” (PLOS Pathogens, 2026)
